The source of these data is article PMC13242511, “Disrupting Notch signalling by a small molecule inhibiting dihydroorotate dehydrogenase activity” (Scientific Reports, 2026).

Where a SMILES comes first, the peptide text is derived from it. The star is where a group is joined. Cbz = O=C(OCc1ccccc1)*

By IC50 is commonly meant the concentration that inhibits the measured activity by half.

The subject of assay [1] is mNotch1ΔE fused to an HiBiT tag. Briefly: HiBit reporter assay. Particulars: 24 h, 14-point dose-response; Supplemental Fig. 8D,G. The assay is classed as cell-based, mouse. The method, then: The Notch1ΔE construct used to generate the Notch reporter cell line (see above) was first cloned in frame into the pBiT3.2-C [TK/HiBiT/Blast] Vector (Promega) and then stably introduced into HEK293T wild type cells, using Lipofectamine transfection, as described. Analogous to the Notch reporter cell line, Blasticidin was used as a selection marker (0.1 mg/ml) and stable cell lines with robust luciferase signals were generated. […] A clone (#D2) with an empty HiBit vector stably integrated was used as control.
20 µl containing 4,000 cells were seeded on 384-well pre-spotted compound plates (Greiner, cat #781080). Cells were incubated for 24 h and viability was determined using CellTiter-Fluor (Promega, cat # G6080), following the manufacturer’s instructions. Next, cells were subjected to the HiBit assay according to the manufacturer’s instructions (Promega, cat # N3030). Prior to cell lysis, the tissue culture plates were allowed to cool down to room temperate. Fluorescence and luminescence signals were recorded using a SpectraMax i3 (Molecular devices) and signals were read at different time-points to determine optimal signal stability. Cells cultivated only with DMSO were used as a reference to determine effects of compounds. MG132, Bafilomycin A1 and the GSI RO4929097 served as additional controls. Celastrol was used to determine the assay window, and a minimum of two technical replicates were measured per assay.

Assay [2] has as its system Notch1 ICD-induced mouse model of T-ALL. Set-up: method as in PMID 37648673. Particulars: cited from earlier work.
In the next assay the test system is Drosophila melanogaster. Particulars: cited from earlier work.
In another assay the target is γ-secretase complex (Homo sapiens, UniProt P49768). Put plainly: APP-C99 counter assay (GSI reporter assay). It counts as cell-based. Particulars: for 3p-DR in % of DMSO counter: APP-C99 counter assay. In a few lines:
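γ-secretase activity reported via APP cleavage driving firefly luciferase, normalized to renilla. After 24 h transfection then 24 h compound exposure, signals were read (0.1 s integration). Triplicate dose–responses fitted by variable-slope four-parameter model for IC50; area under curve also derived.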

In assay [3] the test system is Notch signalling. Put plainly: Notch reporter assay (12xCSL firefly luciferase / renilla luciferase, HEK293T Notch1ΔE reporter cell line clone #A1-11). The assay is classed as cell-based. The arrangement: Confirmation screen: unit not given here. Particulars: for inhibitor ratio in % of DMSO in 3 point DR: 3-point DR confirmation screen, Notch reporter assay. In outline:
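Compounds at two-fold concentration in 10 µl medium were brought to one-fold by adding 10 µl holding 4000 Notch reporter cells (clone #A1-11) per well of a 384-well plate. After 24 h, Promega dual-GLO firefly and renilla luciferase were read on a SpectraMaxi3. Dose-response curves were fitted with a log(inhibitor) vs. response variable-slope model.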
Background: Reporter assays use an easily measured gene product as a stand-in for the process of interest.

Assay [4] relates to Notch signalling. Described as above. It counts as cell-based. Particulars: 24 h, unit from Fig. 2 legend.
For assay [5], the system named is T-ALL and breast cancer cell lines. Briefly: Growth inhibition in tumour cell lines (panel, cell lines not named singly). Particulars: overview in comparison to compound C; Supplemental Fig. 9. The assay is classed as cell-based. From the text: We next investigated whether compounds A-E affected growth and viability of cell lines from T-cell acute lymphoblastic leukaemia (T-ALL) and breast cancer, two tumour types in which elevated Notch signalling has been implicated in tumorigenesis. […] When testing analogues of compounds B and C, five of the seven B analogues and one of the two C analogues produced dose–response curves and IC50s, which however were higher compared to the original hits (Supplemental Fig. 5A; IC50s are presented in Supplemental Table 6).
Compounds were spotted on white 384-well tissue culture plates (Greiner, cat #781080) using an Echo 525 Acoustic liquid handler (Labcyte). Cells were grown to 80% confluence, detached if required, counted and 20 µl containing 2000–4000 cells per well was then seeded in each well and cultivated for three (4,000 cells seeded) and six days (2,000 cells seeded). […] Luciferase activity (reading out metabolic activity) was determined using the CellTiter-Glo 2.0 kit (CTG, Promega, cat #G9242) following the manufacturer’s instructions and luminescence was measured on a SpectraMaxi3 or Varioscan plate reader (Molecular Devices, Thermofisher).

The mark [6] stands for this setting: 10 µM, sheet conf vs counter 10 µM.
Where [7] appears, read: 25 µM, sheet "conf vs counter 25 µM", same values given as % of DMSO in sheet "3p-DR in % of DMSO counter".
Setting [8] is: 10 µM, sheet conf vs counter 10 µM, same values as 3-point DR confirmation screen.
Setting [9] is: 25 µM, Notch reporter 3-point dose-confirmation assay, sheet "conf vs counter 25 µM".
Where [10] appears, read: overview in comparison to compound C, Supplemental Fig. 9.

With `CO/C1=C\C(C)=C\[C@@H](C)[C@@H](O)[C@@H](C)C/C(C)=C/C=C/[C@H](OC)[C@@H]([C@@H](C)[C@@H](O)[C@H](C)[C@@]2(O)C[C@@H](O)[C@H](C)[C@@H](C(C)C)O2)OC1=O` [Bafilomycin A1, reference compound], in assay [1], the HiBiT luciferase signal result is recorded as “increased the HiBiT signal”.
Turning to `Cc1c(-c2ccc(-c3ccccc3F)cc2)nc2ccc(F)cc2c1C(=O)O` [brequinar], in assay [2], the “outcome in Notch1 ICD-induced mouse model of T-ALL” value is on record as “curative”.
Regarding `Cc1c(C(=O)O)[nH]c(=O)[nH]c1=O` [5-methyl orotate], the “phenotype after chemical DHODH inhibition” value in the assay with Drosophila melanogaster is “phenocopied Notch mutations”.
For `CC(C)C[C@@H](C=O)NC(=O)[C@H](CC(C)C)NC(=O)[C@H](CC(C)C)NC(=O)OCc1ccccc1` [MG132, reference compound] (Cbz-Leu-Leu-Leu-aldehyde), the HiBiT luciferase signal entry in assay [1] was “increased the HiBiT signal”.
`FC(F)(F)CCN1CCC2(CC1)NCCc1c2[nH]c2ccc(Cl)cc12` [CBK039331]: the “3p-DR in % of DMSO counter” value at γ-secretase complex (10µM) was 111.0 % of DMSO; at γ-secretase complex (25µM), 121.8 % of DMSO; on γ-secretase complex (1,25µM) it was 81.3 % of DMSO. For the same compound, the results for the “Counter screen (Hek APP-C99)” value at γ-secretase complex (setting [6]) and at γ-secretase complex (setting [7]) were 111.0 and 121.7, respectively. Moreover, the “inhibitor ratio in % of DMSO in 3 point DR” value (from here on “inhibitor ratio in % of DMSO”) is listed as 79.3 % of DMSO in the assay with Notch signalling [3] (10µM), 73.3 % of DMSO with Notch signalling [3] (25µM) and 98.4 % of DMSO in the assay with Notch signalling [3] (1,25µM). Also, the Confirmation screen turned out to be 79.3 in the assay with Notch signalling [3] (setting [8]) and 73.3 with Notch signalling [3] (setting [9]). In addition, in the assay with Notch signalling [4], the “Primary screen at 10 µM (Notch reporter signal)” value (“Primary screen at 10 µM” for short) is 64.3 % of DMSO.
Regarding `COc1ccc(N(CC(O)CN2CCOCC2)S(=O)(=O)c2ccccc2)cc1` (centres unmarked) [CBK263589], the entries for the “3p-DR in % of DMSO counter” value at γ-secretase complex (10µM), at γ-secretase complex (25µM) and on γ-secretase complex (1,25µM) were 81.1 % of DMSO, 76.7 % of DMSO and 74.5 % of DMSO, respectively. The figures for the “Counter screen (Hek APP-C99)” value at γ-secretase complex (setting [6]) and at γ-secretase complex (setting [7]) were 81.1 and 76.7, respectively. Further, the “inhibitor ratio in % of DMSO” value with Notch signalling [3] (10µM) is given as 96.3 % of DMSO; in the assay with Notch signalling [3] (25µM) it was 100.1 % of DMSO; with Notch signalling [3] (1,25µM), 103.6 % of DMSO. Further, the Confirmation screen stood at 96.3 with Notch signalling [3] (setting [8]) and 100.1 with Notch signalling [3] (setting [9]). For the same compound, the “Primary screen at 10 µM” value in the assay with Notch signalling [4] is listed as 69.0 % of DMSO.
As for BAY2402234 [reference compound], the APP assay entry on γ-secretase complex (setting [10]) is given as “higher potency”. Also, the concentration for half-maximal inhibition (IC50) in the assay on Notch signalling [3] (expanded dose range 500 nM-25 pM, Fig. 7E, read-out: IC50, Notch reporter activity) turned out to be 11 nM. Also, the Notch assay entry with Notch signalling [3] (setting [10]) was “higher potency”. Further, the viability assay entry in assay [5] is given as “reduced”.
Take `COc1ccc2cc(C(=O)N3CCC(c4ccncc4)CC3)[nH]c2c1` [CBK283799]: the “3p-DR in % of DMSO counter” value is 49.5 % of DMSO on γ-secretase complex (10µM), 70.8 % of DMSO on γ-secretase complex (25µM) and 72.9 % of DMSO at γ-secretase complex (1,25µM). In addition, the “Counter screen (Hek APP-C99)” value on γ-secretase complex (setting [6]) came out at 49.5; at γ-secretase complex (setting [7]), 70.8. The “inhibitor ratio in % of DMSO” value with Notch signalling [3] (10µM) is given as 56.5 % of DMSO; in the assay with Notch signalling [3] (25µM), 73.6 % of DMSO; with Notch signalling [3] (1,25µM) it was 82.5 % of DMSO. In addition, the Confirmation screen in the assay with Notch signalling [3] (setting [8]) is listed as 56.5; with Notch signalling [3] (setting [9]), 73.6. Further, the “Primary screen at 10 µM” value in the assay with Notch signalling [4] was 60.5 % of DMSO.
